Like-named read-outs stand apart in the source and are kept apart here.
What was measured:
PI3Kα = PI3Kα (Homo sapiens (Human), UniProt P42336); test: PI3K inhibition assay (PI3 Kinase activity/inhibitor assay kit), PI3Kα; format: biochemical; settings: read-out: IC50 against PI3Kα
PI3K δ = PI3K δ (Homo sapiens (Human), UniProt O00329); test: PI3K inhibition assay, PI3K δ isoform; format: biochemical
Procedure: (§1) PI3K inhibition assay (PI3K Assay (Emmanuelle M, Huang Y, Yan H G et al. Targeting Protein Translation in Human Non-Small Cell Lung Cancer via Combined MEK and Mammalian Target of Rapamycin Suppression. Cancer Res 67:(23). (2007).) was carried out by PI3 Kinase activity/inhibitor assay kit, where PI3 kinase reaction was set up in Glutathione-coated strips/plate for inhibitor reaction. Kinase and inhibitors were pre-incubated for 10 minutes prior to the addition of PIP2 substrate. 5 μL of 5× kinase reaction buffer were added in each well followed by the further addition of 5 μL/well of PIP2 substrate. Then distilled H2O was added to each well so as to make up a final volume of 25 μL/well. Incubation was done at rt for 1 hour which was followed by washing the wells 3 times with 200 μL of 1×TBST per well and then 2 times with 200 μL of IX TBS per well. Then 100 μL of the Substrate TMB per well was added and then to keep for colour development in the dark for 5-20 minutes. However, appearance of the blue color to avoid over-development were monitored. 100 μL of the stop solution per well was used to stop the reaction. Readings were recorded at 450 nm.

PI3K γ = PI3K γ (Homo sapiens (Human), UniProt P48736); test: PI3K inhibition assay, PI3K γ isoform; format: biochemical
Chain of PI3K γ (P48736 whole entry, canonical isoform): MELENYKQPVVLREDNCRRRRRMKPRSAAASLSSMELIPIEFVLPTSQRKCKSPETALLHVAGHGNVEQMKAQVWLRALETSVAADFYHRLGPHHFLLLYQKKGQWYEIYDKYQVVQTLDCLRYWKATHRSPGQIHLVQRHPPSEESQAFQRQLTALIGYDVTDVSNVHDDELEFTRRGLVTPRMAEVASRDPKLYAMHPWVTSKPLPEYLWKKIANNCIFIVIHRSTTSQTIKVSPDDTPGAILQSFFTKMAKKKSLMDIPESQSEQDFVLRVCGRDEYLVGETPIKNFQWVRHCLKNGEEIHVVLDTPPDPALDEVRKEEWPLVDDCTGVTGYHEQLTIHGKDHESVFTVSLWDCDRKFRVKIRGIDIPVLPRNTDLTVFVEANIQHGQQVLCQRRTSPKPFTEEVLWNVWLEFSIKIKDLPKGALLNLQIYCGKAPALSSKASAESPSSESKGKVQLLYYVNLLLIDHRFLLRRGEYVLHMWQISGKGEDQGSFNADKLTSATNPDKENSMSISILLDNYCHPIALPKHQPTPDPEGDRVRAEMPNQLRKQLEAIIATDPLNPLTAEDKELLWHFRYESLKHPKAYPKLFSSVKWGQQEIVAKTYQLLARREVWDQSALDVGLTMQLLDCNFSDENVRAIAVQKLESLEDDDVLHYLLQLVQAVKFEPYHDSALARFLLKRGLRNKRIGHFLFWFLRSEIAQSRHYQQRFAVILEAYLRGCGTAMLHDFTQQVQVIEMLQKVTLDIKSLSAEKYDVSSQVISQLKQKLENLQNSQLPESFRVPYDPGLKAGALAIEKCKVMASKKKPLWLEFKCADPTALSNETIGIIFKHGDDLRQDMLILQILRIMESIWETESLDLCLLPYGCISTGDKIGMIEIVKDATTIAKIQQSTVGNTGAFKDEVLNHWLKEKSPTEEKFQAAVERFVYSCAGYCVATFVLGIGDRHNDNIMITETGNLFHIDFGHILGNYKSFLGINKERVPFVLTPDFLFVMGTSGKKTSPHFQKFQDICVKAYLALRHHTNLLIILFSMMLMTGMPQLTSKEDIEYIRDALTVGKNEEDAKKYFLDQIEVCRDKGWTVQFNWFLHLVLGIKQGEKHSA
Procedure: as §1

PI3Kβ = PI3Kβ (Homo sapiens (Human), UniProt P42338); test: PI3K inhibition assay (PI3 Kinase activity/inhibitor assay kit), PI3Kβ; format: biochemical
Chain of PI3Kβ (P42338 whole entry): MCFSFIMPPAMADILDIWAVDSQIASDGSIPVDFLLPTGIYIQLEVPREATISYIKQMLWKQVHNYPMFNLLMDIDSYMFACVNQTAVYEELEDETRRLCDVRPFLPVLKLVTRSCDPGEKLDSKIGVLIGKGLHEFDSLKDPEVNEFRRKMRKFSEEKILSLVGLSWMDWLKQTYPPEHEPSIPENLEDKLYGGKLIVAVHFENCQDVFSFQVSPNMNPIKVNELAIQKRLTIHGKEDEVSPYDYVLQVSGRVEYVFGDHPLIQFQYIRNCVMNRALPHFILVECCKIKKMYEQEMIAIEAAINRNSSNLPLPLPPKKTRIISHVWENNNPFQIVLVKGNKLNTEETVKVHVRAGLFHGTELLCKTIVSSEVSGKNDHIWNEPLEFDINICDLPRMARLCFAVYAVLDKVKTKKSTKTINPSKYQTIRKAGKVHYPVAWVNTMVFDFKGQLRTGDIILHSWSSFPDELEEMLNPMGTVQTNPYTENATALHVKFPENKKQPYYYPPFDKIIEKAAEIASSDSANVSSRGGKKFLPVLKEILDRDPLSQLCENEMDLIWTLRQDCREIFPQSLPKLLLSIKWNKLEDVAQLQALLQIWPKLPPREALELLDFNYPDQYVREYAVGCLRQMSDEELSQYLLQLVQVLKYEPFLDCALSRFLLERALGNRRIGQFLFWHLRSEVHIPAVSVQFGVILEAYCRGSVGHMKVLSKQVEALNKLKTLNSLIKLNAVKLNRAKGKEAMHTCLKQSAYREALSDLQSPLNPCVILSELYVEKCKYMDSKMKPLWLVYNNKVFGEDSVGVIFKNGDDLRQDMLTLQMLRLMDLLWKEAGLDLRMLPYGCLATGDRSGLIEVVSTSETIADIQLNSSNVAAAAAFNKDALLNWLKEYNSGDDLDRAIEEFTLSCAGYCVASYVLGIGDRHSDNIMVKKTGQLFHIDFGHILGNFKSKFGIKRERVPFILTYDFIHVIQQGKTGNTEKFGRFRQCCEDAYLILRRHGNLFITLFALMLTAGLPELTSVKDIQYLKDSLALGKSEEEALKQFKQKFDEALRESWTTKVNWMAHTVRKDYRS
Chain of PI3Kβ (P27986 whole entry partner): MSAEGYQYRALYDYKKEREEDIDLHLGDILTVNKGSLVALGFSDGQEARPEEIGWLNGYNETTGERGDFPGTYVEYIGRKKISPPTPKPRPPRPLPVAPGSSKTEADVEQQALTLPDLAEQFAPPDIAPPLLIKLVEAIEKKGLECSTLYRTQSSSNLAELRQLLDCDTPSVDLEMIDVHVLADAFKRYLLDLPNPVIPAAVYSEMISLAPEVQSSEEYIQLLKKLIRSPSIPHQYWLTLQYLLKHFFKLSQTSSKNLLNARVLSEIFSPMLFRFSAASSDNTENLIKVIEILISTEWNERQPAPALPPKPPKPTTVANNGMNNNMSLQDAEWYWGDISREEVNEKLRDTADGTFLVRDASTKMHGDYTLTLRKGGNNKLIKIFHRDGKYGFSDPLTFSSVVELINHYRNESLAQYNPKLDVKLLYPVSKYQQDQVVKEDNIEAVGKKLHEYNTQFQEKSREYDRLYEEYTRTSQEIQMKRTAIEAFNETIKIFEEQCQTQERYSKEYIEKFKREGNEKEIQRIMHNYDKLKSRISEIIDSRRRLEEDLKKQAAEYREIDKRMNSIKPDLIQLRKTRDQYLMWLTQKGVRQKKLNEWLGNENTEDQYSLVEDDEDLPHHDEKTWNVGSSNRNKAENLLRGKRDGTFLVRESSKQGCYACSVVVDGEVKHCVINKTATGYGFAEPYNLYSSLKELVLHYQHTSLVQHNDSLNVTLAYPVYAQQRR
Procedure: as §1, with “Y, Yan H G” left out, “nm. The IC50 value of a drug measures the effectiveness of a compound in inhibiting biological or biochemical function. […]” for “nm.”

human cancer cell lines = test: In vitro cell line based anticancer activity, human cancer cell lines; settings: 10 μM
Source text: (§2) The MTT assay (MTT Assay (Legrier M E, Yang C P, Yan H G et al. Targeting protein translation in human non small lung cancer via combined MEK and mammalian target of rapamycin suppression. Cancer Res 67:11300-8(2007).) is useful for measuring the effect of a wide range of compounds on the in vitro growth of either normal or cancer cell lines. The assay was set up in a 96-well, flat-bottomed polystyrene microtiter plate. 3-5000 cells were suspended per well in appropriate growth medium, and the cells were added to replicate wells (triplicates were preferred). It was preferable to add the cells to the required number of wells in the plate prior to adding the drugs or the test agents. After the cells were added to the plate, it was placed on the incubator for overnight incubation, while the agents to be tested were being prepared. After overnight incubation drugs or test compounds were added at defined concentrations to each set of replicate wells and incubated for 48 hrs in CO2 incubator. Most of these compounds were dissolved in dimethyl sulfoxide (DMSO) for the final addition. After 48 hr incubation, diluted the MTT stock solution ([…]) with an equal volume of tissue culture medium and added 20 μl of this solution directly to each well with a multichannel pipette. […] A standard micro plate reader with adjustable wavelength across the visible spectrum was used. […]

caco-2 = test: MTT cytotoxic assay, colon (caco-2) cell line; parameters: species or system human; settings: 48 h, read-out: cell based IC50 (MTT)
Source text: as §2

[1] = tested on: caco-2, colon human cancer cell line; test: Cell cycle analysis by flow cytometry (propidium iodide); format: cell-based; settings: caco-2, under similar conditions, concentration not given
Procedure: Analysis (Cell cycle (Waxman D J, Schwartz P S, Harnessing apoptosis for improved anti-cancer gene therapy, Cancer Res. 63:8563-8572(2003).) of a population of cells replication state can be achieved by fluorescence labeling of the nuclei of cells in suspension and then analyzing the fluorescence properties of each cell in the population. The experiment was performed using caco-2, colon human cancer cell line. Cells were seeded in 6 well plates at the concentration of 3×10^5 cells/ml/well. Plate was incubated in CO2 incubator for overnight. After overnight incubation test sample(s) were added at desired concentration, sparing wells for negative and positive control and incubated for 24 hrs. After 24 hr incubation, cell were trypsinized along with test sample from each well was extracted using a micropippete and separately transferred into 15 ml centrifuge tubes. Tubes were centrifuged at 3000 rpm for 5 min. […] Reading was taken on flow cytometer (BD Biosciences).
Results: Cell cycle is the life cycle of a cell. […] In the present study, the effect of compound E on the DNA content by cell cycle phase distribution was assessed by using colon (caco-2) cell line. […] Cells (2×10^6/ml/6-well plate), exposed to different concentrations of compound E were stained with propidium iodide (PI) to determine DNA fluorescence and cell cycle phase distribution. […]

[2] = tested on: pAkt (Ser 473) in CACO-2 cells; test: Immunofluorescence microscopic analysis of pAKT (serine 473); format: cell-based, human; settings: 4 μM, 24 hr
Procedure: For immunofluorescence microscopic analysis, 4×10^4 CACO-2 cells/ml were seeded on 18-mm coverslips in 6-well plates, one day before experiment. […] Following treatment, cells were washed in PBS, followed by fixation in absolute methanol at −20° C. for 5 min^19. The fixed cells were blocked with 10% goat serum in PBS for 20 min at room temperature to eliminate non-specific binding of secondary antibody. Cells were incubated with polyclonal rabbit pAKT (serine 473) primary antibody (1:100 in 0.5% BSA in PBS; Santa Cruz Biotechnology) for 1 h at 25° C. in moist chamber, then washed and incubated with secondary antibody. The cells were washed and incubated for 45 min with a Texas red-conjugated goat antirabbit antibody (1:500 in 0.5% BSA in PBS; Santa Cruz Biotechnology) at 25° C. The coverslips were mounted on glass slides with 4′,6-diamidino-2-phenylindole-containing ProLong Gold Antifade mounting medium (Invitrogen) and visualized by fluorescence microscope (Olympus, IX81) under an Olympus 60× oil immersion objective lens. The negative controls were also used in which incubation of cells with primary antibody was omitted.
Results: Phosphorylation (activation) of Akt is associated with protection of cells from apoptosis^20 (K. Nicholson, N. Anderson. 2002. The protein kinase B/Akt signaling pathway in human malignancy. Cell signal 14: 381-395). […]

[3] = tested on: caco-2 colon human cancer cell line; test: Annexin-V apoptotic assay by flow cytometry; format: cell-based; settings: caco-2, under similar conditions, concentration not given
Procedure: The cell death status was analysed using Annexin-V (Annexin-V apoptotic assay (Yunqing Li, FadilaGuessous, SherwinKwon, Manish Kumar. PTEN Has Tumor-Promoting Properties in the Setting of Gain-of-Function p53 Mutations, 2008 Cancer Res; 68: (6) (2008).) Flow cytometery. The experiment was performed using caco-2 colon human cancer cell line. Cells were seeded in 6 well plates at the concentration of 2×10^5 cells/ml/well. Plates were incubated in CO2 incubator for overnight. After overnight incubation test sample(s) were added at desired concentration, sparing wells for negative and positive control and incubated for 48 hrs. After 48 hr incubation, cell were trypsinized and separately transferred into 15 ml centrifuge tubes. Tubes were centrifuged at 3000 rpm for 5 min. The supernatant was discarded and pellet was resuspended in 1 ml filtered PBS and centrifuged at 2000 rpm for 5 min. After 5 mins supernatant was discarded and pellet was resuspended in […] of 1× binding buffer to make cell suspension. From this suspension, 100 μl of cells is transferred in falcon tube and then 10 μl of propidium iodide (PI) and 5 μl Annexin-V antibody were added and incubated for 30 min in dark. After 30 min incubation in dark, apoptosis were analysed by flow cytometer (BD Biosciences).
Overall, there was a concentration dependent net increase in late apoptotic cell population (FIG. 7).

Chain of PI3Kα (P42336 whole entry, looked up, canonical isoform): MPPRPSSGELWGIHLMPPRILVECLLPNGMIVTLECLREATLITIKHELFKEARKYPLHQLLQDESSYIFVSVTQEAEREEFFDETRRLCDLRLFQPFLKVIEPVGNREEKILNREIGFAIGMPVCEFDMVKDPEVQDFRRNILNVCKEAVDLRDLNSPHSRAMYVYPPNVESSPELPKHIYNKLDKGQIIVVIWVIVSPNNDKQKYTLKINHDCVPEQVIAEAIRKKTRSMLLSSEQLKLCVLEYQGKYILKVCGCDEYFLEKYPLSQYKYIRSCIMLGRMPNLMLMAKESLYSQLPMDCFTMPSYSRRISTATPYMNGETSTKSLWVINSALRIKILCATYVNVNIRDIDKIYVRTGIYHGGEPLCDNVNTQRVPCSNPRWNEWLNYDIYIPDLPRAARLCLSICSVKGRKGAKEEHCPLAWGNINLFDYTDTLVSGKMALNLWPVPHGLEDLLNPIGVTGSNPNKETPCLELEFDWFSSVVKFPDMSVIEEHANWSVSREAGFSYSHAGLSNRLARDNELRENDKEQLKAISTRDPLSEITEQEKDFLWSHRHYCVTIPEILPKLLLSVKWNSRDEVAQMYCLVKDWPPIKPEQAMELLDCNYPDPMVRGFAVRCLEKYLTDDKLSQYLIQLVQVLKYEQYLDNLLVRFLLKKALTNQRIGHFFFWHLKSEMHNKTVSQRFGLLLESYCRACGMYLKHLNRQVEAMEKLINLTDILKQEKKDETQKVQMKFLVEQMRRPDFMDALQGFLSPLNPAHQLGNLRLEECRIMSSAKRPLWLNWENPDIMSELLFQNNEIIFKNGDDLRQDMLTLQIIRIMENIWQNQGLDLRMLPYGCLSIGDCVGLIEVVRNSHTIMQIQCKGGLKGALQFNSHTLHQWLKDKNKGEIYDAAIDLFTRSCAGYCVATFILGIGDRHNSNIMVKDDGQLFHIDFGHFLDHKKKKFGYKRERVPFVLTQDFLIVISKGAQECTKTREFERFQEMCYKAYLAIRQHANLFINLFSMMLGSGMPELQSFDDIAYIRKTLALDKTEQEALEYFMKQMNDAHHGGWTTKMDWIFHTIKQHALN
Chain of PI3Kα (P27986 whole entry partner, looked up, canonical isoform): as the sequence (P27986 whole entry partner) above
Chain of PI3K δ (O00329 whole entry, canonical isoform): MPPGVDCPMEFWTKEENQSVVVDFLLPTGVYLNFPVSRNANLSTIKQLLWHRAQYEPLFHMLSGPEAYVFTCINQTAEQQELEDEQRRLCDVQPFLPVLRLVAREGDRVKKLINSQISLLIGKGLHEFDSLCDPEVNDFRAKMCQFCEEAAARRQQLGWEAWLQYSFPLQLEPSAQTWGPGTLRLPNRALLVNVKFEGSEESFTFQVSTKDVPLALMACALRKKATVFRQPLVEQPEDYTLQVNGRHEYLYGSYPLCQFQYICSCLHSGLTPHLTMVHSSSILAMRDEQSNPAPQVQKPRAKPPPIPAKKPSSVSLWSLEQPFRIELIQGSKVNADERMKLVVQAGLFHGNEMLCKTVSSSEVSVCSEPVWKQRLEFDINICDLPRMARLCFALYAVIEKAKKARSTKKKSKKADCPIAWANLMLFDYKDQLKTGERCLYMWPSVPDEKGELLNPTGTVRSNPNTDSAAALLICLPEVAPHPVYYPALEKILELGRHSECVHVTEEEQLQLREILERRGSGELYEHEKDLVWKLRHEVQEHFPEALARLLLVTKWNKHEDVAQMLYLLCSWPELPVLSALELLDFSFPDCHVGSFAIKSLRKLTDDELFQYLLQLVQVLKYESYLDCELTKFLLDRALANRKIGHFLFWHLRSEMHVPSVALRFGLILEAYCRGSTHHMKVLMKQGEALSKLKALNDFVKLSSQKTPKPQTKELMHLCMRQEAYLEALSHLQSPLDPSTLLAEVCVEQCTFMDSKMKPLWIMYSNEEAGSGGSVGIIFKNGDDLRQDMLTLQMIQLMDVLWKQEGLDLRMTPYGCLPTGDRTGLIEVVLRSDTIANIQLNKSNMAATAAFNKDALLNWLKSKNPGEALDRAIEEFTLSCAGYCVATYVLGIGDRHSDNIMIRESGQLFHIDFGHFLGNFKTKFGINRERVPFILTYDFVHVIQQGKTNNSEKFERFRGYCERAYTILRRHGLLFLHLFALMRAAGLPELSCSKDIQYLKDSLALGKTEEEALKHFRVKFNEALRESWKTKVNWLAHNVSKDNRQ
Chain of PI3K δ (P27986 whole entry partner, canonical isoform): as the sequence (P27986 whole entry partner) above

IC50 (PI3Kα) [nM]	IC50 (PI3K δ) [nM]	IC50 (PI3K γ) [nM]	IC50 (PI3Kβ; read-out: PI3K (IC50) β) [nM]	IC50 (PI3Kβ; read-out: IC50 against PI3Kβ) [nM]	Compound	optimal growth inhibition (human cancer cell lines) [%]	IC50 (caco-2) [nM]	percentage of cells in sub-G0 phase [1] [%]	effect on pAkt (Ser 473) [2]	percentage of cells in late apoptotic phase [3] [%]
23	303000	85400	5700	–	CC1(C)CCCC2(C)c3c(oc4c(B(O)O)c(O)c(O)cc34)CCC12 (centres unmarked) [Compound AZ]	–	–	–	–	–
140	–	–	–	100	C=C(CC/C=C(\C)CCC=C(C)C)c1cc2cc(OC)c(OC)cc2o1 [Compound A]	> 74	2400	–	–	–
–	–	–	–	–	Liphagal	–	–	64.9	inhibition of pAKT	42.7

Source: patent publication US9206201B2, “Boronic acid bearing liphagane compounds as inhibitors of P13K-α and/or β” (COUNCIL OF SCIENTIFIC & INDUSTRIAL RESEARCH, priority 2012, dated 2015)
